Measured values: US8106042B2 (priority 2008, dated 2012)

Target: α7-subtype of nicotinic receptors (Mus musculus, UniProt P49582)
Experiment: in vivo
Design: species or system mice
Details: read-out: Inhibition of 3H-α-Bungarotoxine Binding EC50

Sequence of α7-subtype of nicotinic receptors (P49582 23-502): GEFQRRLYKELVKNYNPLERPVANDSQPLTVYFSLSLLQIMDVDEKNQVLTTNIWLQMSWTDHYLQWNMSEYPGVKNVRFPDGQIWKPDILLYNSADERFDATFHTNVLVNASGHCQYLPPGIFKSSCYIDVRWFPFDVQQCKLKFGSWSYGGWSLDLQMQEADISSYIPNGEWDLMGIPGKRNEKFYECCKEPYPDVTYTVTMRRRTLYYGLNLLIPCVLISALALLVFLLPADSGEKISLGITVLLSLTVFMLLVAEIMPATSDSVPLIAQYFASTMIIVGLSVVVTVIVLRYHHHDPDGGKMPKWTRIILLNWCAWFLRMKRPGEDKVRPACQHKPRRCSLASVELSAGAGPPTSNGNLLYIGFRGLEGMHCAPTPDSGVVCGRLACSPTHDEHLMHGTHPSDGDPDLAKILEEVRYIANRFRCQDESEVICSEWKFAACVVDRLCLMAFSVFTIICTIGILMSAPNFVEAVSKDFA

Compound: [O-][N+]12CCC(CC1)N(c1nnc(-c3ccc4c(c3)OCO4)o1)CC2 [Compound 1, 4-(5-Benzo[1,3]-dioxol-5-yl-[1,3,4]oxadiazol-2-yl)-1,4-diazabicyclo[3.2.2]-nonane-1-oxide]
- ED50: 1.5 mg/kg
